The values that follow are results of earlier work, collected in PubChem BioAssay AID1259409 (Chemical Carcinogenesis Research Information System (CCRIS), 2018).

The series deals with rodent chemically induced tumor inhibition, incidence and multiplicity. Put plainly: CCRIS tumor inhibitor studies. The settings on record: Dose [Inhibitor]: 0.

Take `CC(C)=CCC/C(C)=C/C=C/C(C)=C/C=C/C(C)=C/C=C/C=C(C)/C=C/C=C(C)/C=C/C=C(\C)CCC=C(C)C`: the “tumour outcome (control, treated, inhibition, significance)” value is 6/6 (100%), 0/6 (0%), 100%, not calculated (Carcinogen: 7,12-DIMETHYLBENZ[A]ANTHRACENE, 57-97-6, 2.5 MG/KG ON DAYS ALTERNATE TO CARCINOGEN APPLICATION FOR STUDY DURATION (STUDY DURATION: 14 WK), Route [Inhibitor]: GAVAGE, Species: HAMSTER, Strain/Sex: SYRIAN/MALE, Target Tissue: Type of Lesion: BUCCAL POUCH: SQUAMOUS CELL CARCINOMA, Dose [Carcinogen]: 0.5% IN LIQUID PARAFFIN ON RIGHT BUCCAL POUCH 3X/WK FOR 14 WK, Promoter: NONE USED); 6/16 (38%), 3/16 (19%), 50%, not significant (Carcinogen: DIETHYLNITROSAMINE: 55-18-5, N-METHYL-N-NITROSOUREA, 684-93-5, 1,2-DIMETHYLHYDRAZINE, 540-73-8, Carcinogen: DIETHYLNITROSAMINE: 55-18-5, N-METHYL-N-NITROSOUREA, 684-93-5, 1,2-DIMETHYLHYDRAZINE, 540-73-8, 25 PPM IN DIET FOR 21 WK BEGINNING 2 WK POST CARCINOGEN TREATMENT (STUDY DURATION: 213 D), Route [Inhibitor]: ORAL, Species: MOUSE, Strain/Sex: B6C3F1/FEMALE, Target Tissue: Type of Lesion: LUNG: ADENOMA, Dose [Carcinogen]: 10 MG/KG BW DEN TWICE ON DAYS 1 AND 21, 120 PPM MNU IN DRINKING WATER DURING WKS 4-9, 20 MG/KG BW DMH 2/WK DURING WKS 4-, Dose [Carcinogen]: 10 MG/KG BW DEN TWICE ON DAYS 1 AND 21, 120 PPM MNU IN DRINKING WATER DURING WKS 4-9, 20 MG/KG BW DMH 2/WK DURING WKS 4-); 11/16 (69%), 11/15 (69%), 0%, not significant (Carcinogen: DIETHYLNITROSAMINE: 55-18-5, N-METHYL-N-NITROSOUREA, 684-93-5, 1,2-DIMETHYLHYDRAZINE, 540-73-8, Carcinogen: DIETHYLNITROSAMINE: 55-18-5, N-METHYL-N-NITROSOUREA, 684-93-5, 1,2-DIMETHYLHYDRAZINE, 540-73-8, 25 PPM IN DIET FOR 21 WK BEGINNING 2 WK POST CARCINOGEN TREATMENT (STUDY DURATION: 213 D), Route [Inhibitor]: ORAL, Species: MOUSE, Strain/Sex: B6C3F1/MALE, Target Tissue: Type of Lesion: LUNG: ADENOMA, Dose [Carcinogen]: 10 MG/KG BW DEN TWICE ON DAYS 1 AND 21, 120 PPM MNU IN DRINKING WATER DURING WKS 4-9, 20 MG/KG BW DMH 2/WK DURING WKS 4-, Dose [Carcinogen]: 10 MG/KG BW DEN TWICE ON DAYS 1 AND 21, 120 PPM MNU IN DRINKING WATER DURING WKS 4-9, 20 MG/KG BW DMH 2/WK DURING WKS 4-); 1/16 (6%), 2/16 (12%), -98%, not significant (Carcinogen: DIETHYLNITROSAMINE: 55-18-5, N-METHYL-N-NITROSOUREA, 684-93-5, 1,2-DIMETHYLHYDRAZINE, 540-73-8, Carcinogen: DIETHYLNITROSAMINE: 55-18-5, N-METHYL-N-NITROSOUREA, 684-93-5, 1,2-DIMETHYLHYDRAZINE, 540-73-8, 25 PPM IN DIET FOR 21 WK BEGINNING 2 WK POST CARCINOGEN TREATMENT (STUDY DURATION: 213 D), Route [Inhibitor]: ORAL, Species: MOUSE, Strain/Sex: B6C3F1/MALE, Target Tissue: Type of Lesion: LUNG: CARCINOMA, Dose [Carcinogen]: 10 MG/KG BW DEN TWICE ON DAYS 1 AND 21, 120 PPM MNU IN DRINKING WATER DURING WKS 4-9, 20 MG/KG BW DMH 2/WK DURING WKS 4-, Dose [Carcinogen]: 10 MG/KG BW DEN TWICE ON DAYS 1 AND 21, 120 PPM MNU IN DRINKING WATER DURING WKS 4-9, 20 MG/KG BW DMH 2/WK DURING WKS 4-); 6/16 (37%), 8/15 (53%), -42%, not significant (Carcinogen: DIETHYLNITROSAMINE: 55-18-5, N-METHYL-N-NITROSOUREA, 684-93-5, 1,2-DIMETHYLHYDRAZINE, 540-73-8, Carcinogen: DIETHYLNITROSAMINE: 55-18-5, N-METHYL-N-NITROSOUREA, 684-93-5, 1,2-DIMETHYLHYDRAZINE, 540-73-8, 50 PPM IN DIET FOR 21 WK BEGINNING 2 WK POST CARCINOGEN TREATMENT (STUDY DURATION: 213 D), Route [Inhibitor]: ORAL, Species: MOUSE, Strain/Sex: B6C3F1/FEMALE, Target Tissue: Type of Lesion: LUNG: ADENOMA, Dose [Carcinogen]: 10 MG/KG BW DEN TWICE ON DAYS 1 AND 21, 120 PPM MNU IN DRINKING WATER DURING WKS 4-9, 20 MG/KG BW DMH 2/WK DURING WKS 4-, Dose [Carcinogen]: 10 MG/KG BW DEN TWICE ON DAYS 1 AND 21, 120 PPM MNU IN DRINKING WATER DURING WKS 4-9, 20 MG/KG BW DMH 2/WK DURING WKS 4-); 11/16 (69%), 3/16 (19%), 73%, not significant (Carcinogen: DIETHYLNITROSAMINE: 55-18-5, N-METHYL-N-NITROSOUREA, 684-93-5, 1,2-DIMETHYLHYDRAZINE, 540-73-8, Carcinogen: DIETHYLNITROSAMINE: 55-18-5, N-METHYL-N-NITROSOUREA, 684-93-5, 1,2-DIMETHYLHYDRAZINE, 540-73-8, 50 PPM IN DIET FOR 21 WK BEGINNING 2 WK POST CARCINOGEN TREATMENT (STUDY DURATION: 213 D), Route [Inhibitor]: ORAL, Species: MOUSE, Strain/Sex: B6C3F1/MALE, Target Tissue: Type of Lesion: LUNG: ADENOMA, Dose [Carcinogen]: 10 MG/KG BW DEN TWICE ON DAYS 1 AND 21, 120 PPM MNU IN DRINKING WATER DURING WKS 4-9, 20 MG/KG BW DMH 2/WK DURING WKS 4-, Dose [Carcinogen]: 10 MG/KG BW DEN TWICE ON DAYS 1 AND 21, 120 PPM MNU IN DRINKING WATER DURING WKS 4-9, 20 MG/KG BW DMH 2/WK DURING WKS 4-). Moreover, the “tumour outcome (control, treated, inhibition, significance)” value (Carcinogen: DIETHYLNITROSAMINE: 55-18-5, N-METHYL-N-NITROSOUREA, 684-93-5, 1,2-DIMETHYLHYDRAZINE, 540-73-8, Carcinogen: DIETHYLNITROSAMINE: 55-18-5, N-METHYL-N-NITROSOUREA, 684-93-5, 1,2-DIMETHYLHYDRAZINE, 540-73-8, 50 PPM IN DIET FOR 21 WK BEGINNING 2 WK POST CARCINOGEN TREATMENT (STUDY DURATION: 213 D), Route [Inhibitor]: ORAL, Species: MOUSE, Strain/Sex: B6C3F1/MALE, Target Tissue: Type of Lesion: LUNG: CARCINOMA, Dose [Carcinogen]: 10 MG/KG BW DEN TWICE ON DAYS 1 AND 21, 120 PPM MNU IN DRINKING WATER DURING WKS 4-9, 20 MG/KG BW DMH 2/WK DURING WKS 4-, Dose [Carcinogen]: 10 MG/KG BW DEN TWICE ON DAYS 1 AND 21, 120 PPM MNU IN DRINKING WATER DURING WKS 4-9, 20 MG/KG BW DMH 2/WK DURING WKS 4-) was 1/16 (6%), 0/16 (0%), 100%, not significant and the “tumour outcome (control, treated, inhibition, significance)” value (Carcinogen: DIETHYLNITROSAMINE, 55-18-5, N-METHYL-N-NITROSOUREA, 684-93-5, 1,2-DIMETHYLHYDRAZINE, 306-37-6, Carcinogen: DIETHYLNITROSAMINE, 55-18-5, N-METHYL-N-NITROSOUREA, 684-93-5, 1,2-DIMETHYLHYDRAZINE, 306-37-6, 25 PPM IN DRINKING WATER FOR 21 WK BEGINNING 2 WK POST CARCINOGEN TREATMENT (STUDY DURATION: 32 WK), Route [Inhibitor]: ORAL, Species: MOUSE, Strain/Sex: B6C3F1/FEMALE, Target Tissue: Type of Lesion: LUNG: ADENOMA, Dose [Carcinogen]: 10 MG/KG BW DEN ON DAYS 11 AND 32 OF AGE, 120 PPM MNU IN DRINKING WATER FROM WKS 4 TO 9, 20 MG/KG BW DMH 2/WK FOR 5 WK, Promoter: NONE USED) is on record as 6/16 (38%), 3/16 (19%), 50%, not significant. Besides, the outcome is 0/16 (0%), 0/16 (0%), 0%, not significant (Carcinogen: DIETHYLNITROSAMINE: 55-18-5, N-METHYL-N-NITROSOUREA, 684-93-5, 1,2-DIMETHYLHYDRAZINE, 540-73-8, Carcinogen: DIETHYLNITROSAMINE: 55-18-5, N-METHYL-N-NITROSOUREA, 684-93-5, 1,2-DIMETHYLHYDRAZINE, 540-73-8, 25 PPM IN DIET FOR 21 WK BEGINNING 2 WK POST CARCINOGEN TREATMENT (STUDY DURATION: 213 D), Route [Inhibitor]: ORAL, Species: MOUSE, Strain/Sex: B6C3F1/FEMALE, Target Tissue: Type of Lesion: LUNG: CARCINOMA, Dose [Carcinogen]: 10 MG/KG BW DEN TWICE ON DAYS 1 AND 21, 120 PPM MNU IN DRINKING WATER DURING WKS 4-9, 20 MG/KG BW DMH 2/WK DURING WKS 4-, Dose [Carcinogen]: 10 MG/KG BW DEN TWICE ON DAYS 1 AND 21, 120 PPM MNU IN DRINKING WATER DURING WKS 4-9, 20 MG/KG BW DMH 2/WK DURING WKS 4-) and 0/16 (0%), 0/15 (0%), 0%, not significant (Carcinogen: DIETHYLNITROSAMINE: 55-18-5, N-METHYL-N-NITROSOUREA, 684-93-5, 1,2-DIMETHYLHYDRAZINE, 540-73-8, Carcinogen: DIETHYLNITROSAMINE: 55-18-5, N-METHYL-N-NITROSOUREA, 684-93-5, 1,2-DIMETHYLHYDRAZINE, 540-73-8, 50 PPM IN DIET FOR 21 WK BEGINNING 2 WK POST CARCINOGEN TREATMENT (STUDY DURATION: 213 D), Route [Inhibitor]: ORAL, Species: MOUSE, Strain/Sex: B6C3F1/FEMALE, Target Tissue: Type of Lesion: LUNG: CARCINOMA, Dose [Carcinogen]: 10 MG/KG BW DEN TWICE ON DAYS 1 AND 21, 120 PPM MNU IN DRINKING WATER DURING WKS 4-9, 20 MG/KG BW DMH 2/WK DURING WKS 4-, Dose [Carcinogen]: 10 MG/KG BW DEN TWICE ON DAYS 1 AND 21, 120 PPM MNU IN DRINKING WATER DURING WKS 4-9, 20 MG/KG BW DMH 2/WK DURING WKS 4-).
